{
  "source": "patent US9018234B2",
  "about": "“Fluoro-substituted 2-aryl-3,5-dicyano-4-indazolyl-6-methyl-1,4-dihydropyridines and uses thereof” (Bayer Intellectual Property GmbH, priority 2009, dated 2015)",
  "data": [
    {"assay": "Caco-2 permeability assay", "type": "in vitro ADME", "settings": "human, apical to basolateral, 2 μM test concentration, 2 h at 37° C., read-out: Caco-2 permeability PappA-B", "from_the_text": "Caco-2 Permeability Assay:\nThe in vitro permeation of a test compound across a Caco-2 cell monolayer is a well-established assay system to predict the permeability from the gastro-intestinal tract [cf. P. Artursson and J. Karlsson: Correlation between oral drug absorption in humans and apparent drug permeability coefficients in human intestinal epithelial (Caco-2) cells, Biochem. Biophys. 175 (3), 880-885 (1991)]. The permeability of the compounds of the present invention in such Caco-2 cells was determined as described below:\nHuman Caco-2 cells (ACC No. 169, DSMZ, German Collection of Microorganisms and Cell Cultures, Braunschweig, Germany) are seeded on 24-well insert plates and are allowed to grow for 14-16 days. For permeability studies, the test compounds are dissolved in DMSO and diluted to the final test concentration of 2 μM with transport buffer [Hanks' Buffered Salt Solution, Gibco/Invitrogen, further supplemented with glucose (final concentration 19.9 mM) and HEPES (final concentration 9.8 mM)]. For determination of the apical to basolateral permeability (PappA-B), the test compound solution is added to the apical side of the cell monolayer and transport buffer to the basolateral side of the monolayer; for determination of the basolateral to apical permeability (PappB-A), the test compound solution is added to the basolateral side of the cell monolayer and transport buffer to the apical side of the monolayer. Samples are taken from the donor compartment at the beginning of the experiment to confirm mass balance. After an incubation of 2 h at 37° C., samples are taken from both compartments. Samples are analyzed by LC-MS/MS, and the apparent permeability coefficients are calculated. Lucifer Yellow permeability is assayed for each cell monolayer to ensure cell monolayer integrity, and the permeability of Atenolol (low permeability marker) and Sulfasalazine (marker for active excretion) is determined for each batch as quality control.\nRepresentative results from this assay are listed in Table 2 below together with corresponding data for two structural analogs having an unsubstituted methyl group in 6-position of the 1,4-dihydropyridine ring (comparative Examples A and B, see experimental section above; disclosed generically in WO 2008/071451-A1): […]", "units": {"Papp at 2 h, 2 μM": "×10⁻⁶ cm/s"}, "values": [
      {"molecule": "Cc1n[nH]c2ccc(C3C(C#N)=C(c4ccc(F)cc4)NC(C(F)F)=C3C#N)cc12", "note": "(racemic) [Example 6]", "Papp at 2 h, 2 μM": 15},
      {"molecule": "Cc1n[nH]c2ccc(C3C(C#N)=C(c4ccc(F)cc4)NC(C(F)(F)F)=C3C#N)cc12", "note": "(racemic) [Example 13]", "Papp at 2 h, 2 μM": 15.8},
      {"molecule": "COc1ccc(C2=C(C#N)C(c3ccc4[nH]nc(C)c4c3)C(C#N)=C(C)N2)cc1", "note": "(racemic) [Example A, 2-(4-Methoxyphenyl)-6-methyl-4-(3-methyl-1H-indazol-5-yl)-1,4-dihydropyridine-3,5-dicarbonitrile, reference compound]", "Papp at 2 h, 2 μM": 9.9},
      {"molecule": "CC1=C(C#N)C(c2ccc3[nH]nc(C)c3c2)C(C#N)=C(c2ccc(F)cc2)N1", "note": "(racemic) [Example B, 2-(4-Fluorophenyl)-6-methyl-4-(3-methyl-1H-indazol-5-yl)-1,4-dihydropyridine-3,5-dicarbonitrile, reference compound]", "Papp at 2 h, 2 μM": 6.2},
      {"molecule": "COc1ccc(C2=C(C#N)C(c3ccc4[nH]nc(C)c4c3)C(C#N)=C(C(F)F)N2)cc1", "note": "(centres unmarked) [Example 8]", "Papp at 2 h, 2 μM": 17}
    ]}
  ]
}
